Experimental data reported in patent publication US8957093B2, “N-biphenylmethylindole modulators of PPARG” (The Scripps Research Institute, priority 2011, dated 2015).
Where two headings read alike, the source gives them in different places.

Experiments:
[1] = molecular target: GST-PPARG-LBD (Homo sapiens (Human), UniProt P37231); experiment: Lanthascreen PPARG competitive binding assay (Invitrogen, TR-FRET); settings: NA = not active, inc = incomplete curve, read-out: IC50 (nM) Lantha
How it was run: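 Values are fold change in 520 nm/490 nm FRET ratio relative to a 2% DMSO no-ligand control, excitation 340 nm. Compound dilutions starting at 10 μM competed against 5 nM Fluormone Pan-PPAR Green for GST-PPARG-LBD bound by 5 nM Tb anti-GST antibody. Incubation 2 h in the dark in assay buffer C, triplicate wells.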

[2] = molecular target: Gal-4-PPAR (human PPAR LBD fused to GAL4 DNA-binding domain) (Homo sapiens (Human), UniProt P37231); experiment: GAL4-PPARG LBD / UAS-luciferase transactivation assay in HEK 293T cells; assay type: cell-based; settings: for activation at 10 µM: HEK-293T, 18 h, read-out: % transactivation at 10 μM (GAL4)
[3] = Lanthascreen competitive binding
[4] = GAL4 transactivation, HEK 293T cells, NA = not active, read-out: EC50 (nM) GAL4
[5] = Lanthascreen PPARG competitive binding
[6] = GAL4 transactivation, read-out: EC50 (nM) GAL4

GST-PPARG-LBD, sequence (P37231 238-503): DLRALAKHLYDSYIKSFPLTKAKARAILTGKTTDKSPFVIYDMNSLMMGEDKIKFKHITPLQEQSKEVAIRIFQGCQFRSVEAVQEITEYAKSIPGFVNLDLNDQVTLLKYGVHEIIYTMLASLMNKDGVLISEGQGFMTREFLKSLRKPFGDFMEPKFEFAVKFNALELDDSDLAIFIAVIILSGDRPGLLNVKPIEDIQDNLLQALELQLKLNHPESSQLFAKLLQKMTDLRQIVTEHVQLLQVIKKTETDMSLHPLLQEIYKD
Gal-4-PPAR (human PPAR LBD fused to GAL4 DNA-binding domain), sequence (P37231 238-503): as above

| Compound | IC50 [1, 3] [nM] | EC50 [2] [nM] | activation at 10 µM [2] [%] | EC50 [2, 4] [nM] | IC50 [1, 5] [nM] | EC50 [2, 6] [nM] |
| --- | --- | --- | --- | --- | --- | --- |
| Cc1c(C)n(Cc2ccc(-c3ccccc3-c3noc(=O)[nH]3)cc2)c2ccc(C(=O)N[C@@H](C)c3cccc(C(C)C)c3)cc12 [Example 244, (S)—N-(1-(3-isopropylphenyl)ethyl)-2,3-dimethyl-1-((2′-(5-oxo-4,5-dihydro-1,2,4-oxadiazol-3-yl)-[1,1′-biphenyl]-4-yl)methyl)-1H-indole-5-carboxamide] | 40 | 921 | 8 |  |  |  |
| Cc1c(C)n(Cc2ccc(-c3ccccc3-c3n[nH]c(=O)o3)cc2)c2ccc(C(=O)N[C@@H](C)c3cccc(C(C)C)c3)cc12 [Example 245, (S)—N-(1-(3-isopropylphenyl)ethyl)-2,3-dimethyl-1-((2′-(5-oxo-4,5-dihydro-1,3,4-oxadiazol-2-yl)-[1,1′-biphenyl]-4-yl)methyl)-1H-indole-5-carboxamide] | 7 | 454 | 10 |  |  |  |
| CCCc1ccc([C@H](C)NC(=O)c2ccc3c(c2)c(C)c(C)n3Cc2ccc(-c3ccccc3C(=O)O)cc2)cc1 [Example 251, (S)-4′-((2,3-dimethyl-5-(1-(4-propylphenyl)ethylcarbamoyl)-1H-indol-1-yl)methyl)biphenyl-2-carboxylic acid] | 40 |  | 30 | 1610 |  |  |
| Cc1c(C)n(Cc2ccc(-c3ccccc3C(=O)O)cc2)c2ccc(C(=O)NC(C)c3cncc(C4CC4)c3)cc12 (stereo not drawn) [Example 259, 4′-((5-(1-(5-cyclopropylpyridin-3-yl)ethylcarbamoyl)-2,3-dimethyl-1H-indol-1-yl)methyl)biphenyl-2-carboxylic acid] | 19 |  | 15 | 1480 |  |  |
| Cc1c(C)n(Cc2ccc(-c3ccccc3C(=O)O)cc2)c2ccc(C(=O)N[C@@H](C)c3ccc(Br)cn3)cc12 [Example 260, (S)-4′-((5-((1-(5-bromopyridin-2-yl)ethyl)carbamoyl)-2,3-dimethyl-1H-indol-1-yl)methyl)-[1,1′-biphenyl]-2-carboxylic acid] | 2 |  | 25 | 42 |  |  |
| Cc1c(C)n(Cc2ccc(-c3ccccc3C(=O)O)cc2)c2ccc(C(=O)N[C@@H](C)c3ccc(C4CC4)cn3)cc12 [Example 261, (S)-4′-((5-((1-(5-cyclopropylpyridin-2-yl)ethyl)carbamoyl)-2,3-dimethyl-1H-indol-1-yl)methyl)-[1,1′-biphenyl]-2-carboxylic acid] | 4 |  | 30 | 50 |  |  |
| Cc1c(C)n(Cc2ccc(-c3ccccc3C(=O)O)cc2)c2ccc(C(=O)N[C@@H](C)c3ccc(Cl)nc3)cc12 [Example 262, (S)-4′-((5-((1-(6-chloropyridin-3-yl)ethyl)carbamoyl)-2,3-dimethyl-1H-indol-1-yl)methyl)-[1,1′-biphenyl]-2-carboxylic acid] | 144 |  | 35 | 4000 |  |  |
| Cc1c(C)n(Cc2ccc(-c3ccccc3C(=O)O)cc2)c2ccc(C(=O)N[C@@H](C)c3ccc(C4CC4)nc3)cc12 [Example 263, (S)-4′-((5-((1-(6-cyclopropylpyridin-3-yl)ethyl)carbamoyl)-2,3-dimethyl-1H-indol-1-yl)methyl)-[1,1′-biphenyl]-2-carboxylic acid] | 59 |  | 20 | 3760 |  |  |
| Cc1c(C)n(Cc2ccc(-c3ccccc3C(=O)O)cc2)c2ccc(C(=O)N[C@H](C)c3ccc(C4CC4)nc3)cc12 [Example 264, (R)-4′-((5-((1-(6-cyclopropylpyridin-3-yl)ethyl)carbamoyl)-2,3-dimethyl-1H-indol-1-yl)methyl)-[1,1′-biphenyl]-2-carboxylic acid] | 32 |  | 35 | 1990 |  |  |
| Cc1c(C)n(Cc2ccc(-c3ccccc3C(=O)O)cc2)c2ccc(C(=O)N[C@@H](C)c3cc(C4CC4)ccn3)cc12 [Example 266, (S)-4′-((5-((1-(4-cyclopropylpyridin-2-yl)ethyl)carbamoyl)-2,3-dimethyl-1H-indol-1-yl)methyl)-[1,1′-biphenyl]-2-carboxylic acid] | 8 |  | 25 | 588 |  |  |
| Cc1c(C)n(Cc2ccc(-c3ccccc3C(=O)O)cc2)c2ccc(C(=O)N[C@@H](C)c3ccnc(Br)c3)cc12 [Example 267, (S)-4′-((5-(1-(2-bromopyridin-4-yl)ethylcarbamoyl)-2,3-dimethyl-1H-indol-1-yl)methyl)biphenyl-2-carboxylic acid] | 98 |  | 40 | 2490 |  |  |
| Cc1c(C)n(Cc2ccc(-c3ccccc3C(=O)O)cc2)c2ccc(C(=O)N[C@@H](C)c3ccnc(C4CC4)c3)cc12 [Example 268, (S)-4′-((5-(1-(2-cyclopropylpyridin-4-yl)ethylcarbamoyl)-2,3-dimethyl-1H-indol-1-yl)methyl)biphenyl-2-carboxylic acid] | 352 |  | 20 | 8970 |  |  |
| Cc1c(C)n(Cc2ccc(-c3ccccc3C(=O)O)cc2)c2ccc(C(=O)N[C@H](C)c3ccnc(Br)c3)cc12 [Example 269, (R)-4′-((5-(1-(2-bromopyridin-4-yl)ethylcarbamoyl)-2,3-dimethyl-1H-indol-1-yl)methyl)biphenyl-2-carboxylic acid] | 8 |  | 40 | 907 |  |  |
| Cc1c(C)n(Cc2ccc(-c3ccccc3C(=O)O)cc2)c2ccc(C(=O)N[C@H](C)c3ccnc(C4CC4)c3)cc12 [Example 270, (R)-4′-((5-(1-(2-cyclopropylpyridin-4-yl)ethylcarbamoyl)-2,3-dimethyl-1H-indol-1-yl)methyl)biphenyl-2-carboxylic acid] | 15 |  | 40 | 686 |  |  |
| Cc1c(C)n(Cc2ccc(-c3ccccc3C(=O)O)cc2)c2ccc(C(=O)N[C@H](C)c3cccc(Br)n3)cc12 [Example 271, (R)-4′-((5-(1-(6-bromopyridin-2-yl)ethylcarbamoyl)-2,3-dimethyl-1H-indol-1-yl)methyl)biphenyl-2-carboxylic acid] | 2 |  | 20 | 52 |  |  |
| Cc1c(C)n(Cc2ccc(-c3ccccc3C(=O)O)cc2)c2ccc(C(=O)NC(C)c3cccc(C4CC4)n3)cc12 (stereo not drawn) [Example 272, 4′-((5-(1-(6-cyclopropylpyridin-2-yl)ethylcarbamoyl)-2,3-dimethyl-1H-indol-1-yl)methyl)biphenyl-2-carboxylic acid] | < 1 |  | 20 | 2 |  |  |
| Cc1c(C)n(Cc2ccc(-c3ccccc3C(=O)O)cc2)c2ccc(C(=O)N[C@@H](C)c3cccc(Br)n3)cc12 [Example 273, (S)-4′-((5-(1-(6-bromopyridin-2-yl)ethylcarbamoyl)-2,3-dimethyl-1H-indol-1-yl)methyl)biphenyl-2-carboxylic acid] |  |  | 30 |  | 15 | 294 |
| Cc1c(C)n(Cc2ccc(-c3ccccc3C(=O)O)cc2)c2ccc(C(=O)N[C@@H](C)c3cccc(C4CC4)n3)cc12 [Example 274, (S)-4′-((5-(1-(6-cyclopropylpyridin-2-yl)ethylcarbamoyl)-2,3-dimethyl-1H-indol-1-yl)methyl)biphenyl-2-carboxylic acid] |  |  | 30 |  | 19 | 159 |
| Cc1c(C)n(Cc2ccc(-c3ccccc3C(=O)O)cc2)c2ccc(C(=O)NC(C)c3cncc(Br)c3)cc12 (stereo not drawn) [Example 275, 4′-((5-(1-(5-bromopyridin-3-yl)ethylcarbamoyl)-2,3-dimethyl-1H-indol-1-yl)methyl)biphenyl-2-carboxylic acid] |  |  | 35 |  | 8 | 572 |
| Cc1cccc([C@H](C)NC(=O)c2ccc3c(c2)c(C)c(C)n3Cc2ccc(-c3ccccc3C(=O)O)cc2)c1 [Example 295, (S)-4′-((2,3-Dimethyl-5-((1-(m-tolyl)ethyl)carbamoyl)-1H-indol-1-yl)methyl)-[1,1′-biphenyl]-2-carboxylic acid] |  |  | 10 |  | 11 | 60 |
| Cc1c(C)n(Cc2ccc(-c3ccccc3C(=O)O)cc2)c2ccc(C(=O)N[C@H](C)c3cccc(Br)c3)cc12 [Example 296, (R)-4′-((5-((1-(3-Bromophenyl)ethyl)carbamoyl)-2,3-dimethyl-1H-indol-1-yl)methyl)-[1,1′-biphenyl]-2-carboxylic acid] |  |  | 35 |  | < 1 | 69 |
| Cc1c(C)n(Cc2ccc(-c3ccccc3C(=O)O)cc2)c2ccc(C(=O)N[C@@H](C)c3ccc(C(F)(F)F)cc3F)cc12 [Example 298, (S)-4′-((5-((1-(2-Fluoro-4-(trifluoromethyl)phenyl)ethyl)carbamoyl)-2,3-dimethyl-1H-indol-1-yl)methyl)-[1,1′-biphenyl]-2-carboxylic acid] |  |  | 10 |  | 11 | 448 |
| Cc1c(C)n(Cc2ccc(-c3ccccc3C(=O)O)cc2)c2ccc(C(=O)N[C@@H](C)c3cccc(C(F)(F)F)c3F)cc12 [Example 299, (S)-4′-((5-((1-(2-Fluoro-3-(trifluoromethyl)phenyl)ethyl)carbamoyl)-2,3-dimethyl-1H-indol-1-yl)methyl)-[1,1′-biphenyl]-2-carboxylic acid] |  |  | 15 |  | 27 | 346 |
